Laboratory results reported in patent publication US10865216B2, “Tricyclic Gyrase inhibitors” (MERCK SHARP & DOHME CORP., priority 2012, dated 2020).
≈ marks a conversion by molar mass, not a printed value.

What was measured:
E. coli ATCC 25922 = experiment: MIC, E. coli ATCC 25922; assay type: cell-based; conditions: E. coli; Alamar Blue read after overnight incubation at 35° C.
S. aureus ATCC 13709 = experiment: MIC, S. aureus ATCC 13709; assay type: cell-based; conditions: S. aureus; Alamar Blue read after overnight incubation at 35° C.

SMILES | MIC Ec (E. coli ATCC 25922) [µg/mL] | MIC Sa (S. aureus ATCC 13709) [µg/mL]
CNc1cc(F)cc2c1[nH]c1nc(Oc3cnc(SC)nc3)nc(N3CC4(CC[C@H]4N)C3)c12 [Compound 4.202] | ≤0.5 | ≤0.5
CNc1cc(F)cc2c1[nH]c1nc(Oc3cnc(SC)nc3)nc(N3CCC4(C[C@H]4N)C3)c12 (stereo partly shown) [Compound 4.203] | ≤0.5 | ≤0.5
CNc1cc(F)cc2c1[nH]c1nc(Oc3cncc(-c4cncnc4)c3)nc(N3CC4C(N)C4C3)c12 (stereo not shown) [Compound 4.205] | ≤0.5 | ≤0.5
CNc1cc(F)cc2c1[nH]c1nc(Oc3cncc(-c4cn[nH]c4)c3)nc(N3CC4C(N)C4C3)c12 (stereo not shown) [Compound 4.206] | 4 (≈ 8.48 µM) | ≤0.5
CNc1cc(F)cc2c1[nH]c1nc(Oc3cnc(N(C)C)nc3)nc(N3CC[C@@H](N)C3)c12 [Compound 4.207] | ≤0.5 | ≤0.5
CNc1cc(F)cc2c1[nH]c1nc(Oc3cnc(N(C)C)nc3)nc(N3CC4C(N)C4C3)c12 (stereo not shown) [Compound 4.208] | ≤0.5 | ≤0.5
CNc1cc(F)cc2c1[nH]c1nc(Oc3cnc(N(C)C)nc3)nc(N3CC(N)C4(CC4)C3)c12 (stereo not shown) [Compound 4.209] | ≤0.5 | ≤0.5
CNc1cc(F)cc2c1[nH]c1nc(Oc3cncc(-c4nnn(C)n4)c3)nc(N3CC4C(N)C4C3)c12 (stereo not shown) [Compound 4.210] | 1 (≈ 2.05 µM) | ≤0.5
CNc1cc(F)cc2c1[nH]c1nc(Oc3cnc(N4CCOCC4)nc3)nc(N3CC4C(N)C4C3)c12 (stereo not shown) [Compound 4.211] | >16 | 16 (≈ 32.6 µM)
CNc1cc(F)cc2c1[nH]c1nc(Oc3cnc(N4CCOCC4)nc3)nc(N3CC[C@@H](N)C3)c12 [Compound 4.212] | ≤0.5 | ≤0.5
CNc1cc(F)cc2c1[nH]c1nc(Oc3cnc(N4CCOCC4)nc3)nc(N3CC(N)C4(CC4)C3)c12 (stereo not shown) [Compound 4.213] | 1 (≈ 1.98 µM) | ≤0.5
CNc1cc(F)cc2c1[nH]c1nc(Oc3cnc(N4CCOCC4)nc3)nc(N3CCC4(CC4N)C3)c12 (stereo not shown) [Compound 4.214] | 2 (≈ 3.96 µM) | ≤0.5
CNc1cc(F)cc2c1[nH]c1nc(Oc3cnc(N4CCOCC4)nc3)nc(N3CCC(CN)C3)c12 (stereo not shown) [Compound 4.215] | 4 (≈ 8.1 µM) | ≤0.5
CNc1ncc(Oc2nc(N3C[C@H](N)C4(CC4)C3)c3c(n2)[nH]c2c(NC)cc(F)cc23)cn1 [Compound 4.216] | ≤0.5 | ≤0.5
CNc1ncc(Oc2nc(N3CC4C(N)C4C3)c3c(n2)[nH]c2c(NC)cc(F)cc23)cn1 (stereo not shown) [Compound 4.218] | ≤0.5 | ≤0.5
CNc1ncc(Oc2nc(N3CC[C@@H](N)C3)c3c(n2)[nH]c2c(NC)cc(F)cc23)cn1 [Compound 4.219] | ≤0.5 | ≤0.5
CNc1ncc(Oc2nc(N3CCC4(CC4N)C3)c3c(n2)[nH]c2c(NC)cc(F)cc23)cn1 (stereo not shown) [Compound 4.220] | ≤0.5 | ≤0.5
CNc1ncc(Oc2nc(N3CC4CC(N)C4C3)c3c(n2)[nH]c2c(NC)cc(F)cc23)cn1 (stereo not shown) [Compound 4.221] | 2 (≈ 4.45 µM) | ≤0.5
CNc1cc(F)cc2c1[nH]c1nc(Oc3cnc(NC4CC4)nc3)nc(N3CC[C@@H](N)C3)c12 [Compound 4.222] | ≤0.5 | ≤0.5
CNc1cc(F)cc2c1[nH]c1nc(Oc3cnc(NC4CC4)nc3)nc(N3CC4C(N)C4C3)c12 (stereo not shown) [Compound 4.223] | ≤0.5 | ≤0.5
CNc1cc(F)cc2c1[nH]c1nc(Oc3cnc(-c4nn[nH]n4)nc3)nc(N3CC[C@@H](N)C3)c12 [Compound 4.224] | >16 | 1 (≈ 2.16 µM)
CNc1cc(F)cc2c1[nH]c1nc(Oc3cnc4c(c3)ncn4C)nc(N3CC[C@@H](N)C3)c12 [Compound 4.225] | 2 (≈ 4.47 µM) | ≤0.5
CNc1cc(F)cc2c1[nH]c1nc(Oc3cnc4c(c3)ncn4C)nc(N3CC4CC(N)C4C3)c12 (stereo not shown) [Compound 4.226] | 2 (≈ 4.22 µM) | ≤0.5
CNc1cc(F)cc2c1[nH]c1nc(Oc3cnc(N4CCN(C(C)=O)CC4)nc3)nc(N3CC[C@@H](N)C3)c12 [Compound 4.229] | 2 (≈ 3.84 µM) | ≤0.5

SMILES | MIC Ec (E. coli ATCC 25922) [µg/mL] | MIC Sa (S. aureus ATCC 13709) [µg/mL]
CNc1cc(F)cc2c1[nH]c1nc(Oc3ccnnc3)nc(N3CC(N)C4(CC4)C3)c12 (stereo not shown) [Compound 4.230] | >16 | 32 (≈ 76.1 µM)
CNc1cc(F)cc2c1[nH]c1nc(Oc3cnc(C(C)C)nc3)nc(N3CC4C(N)C4C3)c12 (stereo not shown) [Compound 4.232] | ≤0.5 | ≤0.5
CNc1cc(F)cc2c1[nH]c1nc(Oc3cnc(C(C)C)nc3)nc(N3CC4CC(N)C4C3)c12 (stereo not shown) [Compound 4.234] | 1 (≈ 2.16 µM) | ≤0.5
CNc1cc(F)cc2c1[nH]c1nc(Oc3cnc(C(C)C)nc3)nc(N3CCC4(CC4N)C3)c12 (stereo not shown) [Compound 4.235] | ≤0.5 | ≤0.5
CNc1cc(F)cc2c1[nH]c1nc(Oc3cncc(C(N)=O)c3)nc(N3CC4CC(N)C4C3)c12 (stereo not shown) [Compound 4.236] | ≤0.5 | ≤0.5
CNc1cc(F)cc2c1[nH]c1nc(Oc3cncc(C(N)=O)c3)nc(N3CC4C(N)C4C3)c12 (stereo not shown) [Compound 4.237] | 2 (≈ 4.46 µM) | ≤0.5
CNc1cc(F)cc2c1[nH]c1nc(Oc3cnc(C4CC4)nc3)nc(N3CC4CC(N)C4C3)c12 (stereo not shown) [Compound 4.240] | ≤0.5 | ≤0.5
CNc1cc(F)cc2c1[nH]c1nc(Oc3cnc(C4CC4)nc3)nc(N3CC4C(N)C4C3)c12 (stereo not shown) [Compound 4.241] | ≤0.5 | ≤0.5
CNc1cc(F)cc2c1[nH]c1nc(Oc3cnc(C4CC4)nc3)nc(N3CC4(CCC4N)C3)c12 (stereo not shown) [Compound 4.244] | ≤0.5 | ≤0.5
CNc1cc(F)cc2c1[nH]c1nc(Oc3cnc(C4CC4)nc3)nc(N3CC4CC4(CN)C3)c12 (stereo not shown) [Compound 4.246] | ≤0.5 | ≤0.5
CNc1cc(F)cc2c1[nH]c1nc(Oc3cnc(C4CC4)nc3)nc(N3CC4C(CN)C4C3)c12 (stereo not shown) [Compound 4.249] | ≤0.5 | ≤0.5
CNc1cc(F)cc2c1[nH]c1nc(Oc3cnc(C4CC4)nc3)nc(N3CC4CCNC4C3)c12 (stereo not shown) [Compound 4.250] | ≤0.5 | ≤0.5
CNc1cc(F)cc2c1[nH]c1nc(Oc3cnc(C4CC4)nc3)nc(N3CC4CCC(N)C4C3)c12 (stereo not shown) [Compound 4.251] | ≤0.5 | ≤0.5
CNc1cc(F)cc2c1[nH]c1nc(Oc3cnc(C4CC4)nc3)nc(C3CCC4(CC3)NC(=O)NC4=O)c12 (stereo not shown) [Compound 4.252] | >16 | >16
CNc1cc(F)cc2c1[nH]c1nc(Oc3cnc(C4CC4)nc3)nc(N3CC4CCC(CN)C4C3)c12 (stereo not shown) [Compound 4.253] | ≤0.5 | ≤0.5
CCc1ncc(Oc2nc(N3CC4C(N)C4C3)c3c(n2)[nH]c2c(NC)cc(F)cc23)cn1 (stereo not shown) [Compound 4.258] | ≤0.5 | ≤0.5
CCc1ncc(Oc2nc(N3CC(N)C4(CC4)C3)c3c(n2)[nH]c2c(NC)cc(F)cc23)cn1 (stereo not shown) [Compound 4.259] | ≤0.5 | ≤0.5
CCc1ncc(Oc2nc(N3CC4CC4(CN)C3)c3c(n2)[nH]c2c(NC)cc(F)cc23)cn1 (stereo not shown) [Compound 4.261] | 1 (≈ 2.23 µM) | ≤0.5
CCc1ncc(Oc2nc(N3CCC(N)C3)c3c(n2)[nH]c2c(NC)cc(F)cc23)cn1 (stereo not shown) [Compound 4.262] | ≤0.5 | ≤0.5
CCc1ncc(Oc2nc(N3CCC4(CC4N)C3)c3c(n2)[nH]c2c(NC)cc(F)cc23)cn1 (stereo not shown) [Compound 4.263] | ≤0.5 | ≤0.5
CNc1cc(F)cc2c1[nH]c1nc(Oc3ccc4c(c3)C(=O)NC4)nc(N3CC(N)C4(CC4)C3)c12 (stereo not shown) [Compound 4.265] | 4 (≈ 8.45 µM) | ≤0.5
CNc1cc(F)cc2c1[nH]c1nc(Oc3ccc4c(c3)C(=O)NC4)nc(N3CC4CCNC4C3)c12 (stereo not shown) [Compound 4.269] | 4 (≈ 8.45 µM) | ≤0.5
CNc1cc(F)cc2c1[nH]c1nc(Oc3ccc4c(c3)C(=O)NC4)nc(N3CC4(CCC4N)C3)c12 (stereo not shown) [Compound 4.270] | 2 (≈ 4.22 µM) | ≤0.5
